Columns and labels:
Ross broilers = assay: Broiler floor pen trial to day 39, formulations with or without calcium butyrate vs Avilamycine; assay type: in vivo
From the text: The objective of this trial was to study and compare two formulations (Table 4) with organic acids and calcium salts of organic acids. One of the formulations included calcium butyrate. Both formulations were compared with a positive and negative control in order to evaluate their possible growth promoting effect evaluated by broiler performance.
Twelve-hundred Ross broilers were divided over 40 floor pens. Each pen contained 15 male and 15 female Ross broilers, one tube feeder and one bell drinker. Feed and water were available ad libitum. All birds received a broiler starter feed from day 0 until day 11 and a broiler finisher meal from day 11 until day 39. […] Pens were assigned to one of four treatments (ten replicate pens for each treatment) using a block randomization. The in feed treatments consisted of: A. no treatment (negative control); B. Avilamycine 10 g/ton (positive control, dosed as Maxus G200 at 50 g/ton); C. Mixture 1, 5000 g/ton and D. mixture 2, 5000 g/ton. In the broiler house the temperature program started on day 0 at 31° C. decreasing 1° C. every two days until 21° C. was reached. The day-night cycle was 23 hours light and 1 hour dark. All birds were weighed at days 0, 11, 25, and 39. Feed usage was measured at days 11, 25 and 39. Live performance data were analyzed as a randomized block design with pen means as the statistical unit. Statistical analysis was performed with Figurepad Instat 2.0 and Microsoft Excel Analysis Toolpak software.

Ross broiler chicks = assay: Broiler pen trial, early chick growth to 15 days (organic acids and sodium butyrate); assay type: in vivo
From the text: In a broiler trial four different treatments were used in order to evaluate the possible synergistic effect between organic acids and sodium butyrate.
This pen trial included eight replicates of four treatments (Table 1). Each pen had 74 mixed sex commercial Ross broiler chicks. Birds were fed a wheat-based diet including enzymes. All birds were weighed on days 1, 5, 10 and 15.

[1] = day 11, Avilamycine 10 g/ton, formulations 5000 g/ton in feed, mean ± SD
[2] = day 25, Avilamycine 10 g/ton, formulations 5000 g/ton in feed, mean ± SD
[3] = day 39, Avilamycine 10 g/ton, formulations 5000 g/ton in feed, mean ± SD
[4] = to 15 days, wheat-based diet, doses as in Table 1

Compound | FCR day 11 (Ross broilers; [1]) [a] | WG(g) Day 11 (Ross broilers; [1]) [a g] | Weight gain compared with control groups, in words (Ross broilers; day 25) | FCR day 25 (Ross broilers; [2]) [a] | WG(g) Day 25 (Ross broilers; [2]) [b g] | FCR day 39 (Ross broilers; [3]) [ab] | WG(g) Day 39 (Ross broilers; [3]) [b g] | Feed conversion ratio based on weight gain, statistical comparison with control/other treatments (Ross broiler chicks; day 15, P<0.039 for the combination) | FCR based on wt gain (Ross broiler chicks; [4]) [a] | Feed consumed (g/bird) (Ross broiler chicks; [4]) | Weight gain (g/bird) (Ross broiler chicks; [4]) [a g/bird]
Avilamycine | 1.314 ± 0.034 | 227 ± 7 | performed better than the negative control group | 1.775 ± 0.135 | 853 ± 44 | 1.839 ± 0.061 | 1981 ± 58 |  |  |  | 
CCCC(=O)[O-].[Na+] [Treatment B, sodium butyrate] |  |  |  |  |  |  |  | not statistically different from the control group | 1.279 | 441.3 | 358.4

From US7001625B2, “Solid phase synthesis of salts of organic acids including butyric acid” (Kemin Industires, Inc., priority 2001, dated 2006)
